Experimental data: patent publication US8486719B2, “Multiplex assay methods and compositions” (PerkinElmer BioSignal, Inc., priority 2009, dated 2013)

How the values were obtained:
MEK1/ERK2 = MEK1/ERK2 (Homo sapiens, UniProt Q02750); test: One well multiplexed assay, 615 nm signal: interaction between MEK1 and ERK2 with increasing ATP; type: binding; settings: signal detected at 615 nm, FIG. 4; read-out: EC50 for ATP-induced MEK1/ERK2 dissociation
Text: (§1) The kinase MEK1 is expressed with a histidine tag (6×His) at either the C- or N-terminus.
(§2) An antibody which recognizes MEK1 phosphorylated ERK2 (mouse anti-pTpY ERK1/2) is associated with acceptor beads containing thioxene, 9,10-bis(phenylethynyl)anthracene and rubrene via anti-mouse IgG antibody binding. The antibody used, p-Tyr-100, is a generic highly promiscuous anti-phosphotyrosine antibody which recognizes both mono (pY) and dual-(pTpY) phosphorylated forms of ERK2.
(§3) Increasing concentrations of ATP were used to promote the phosphorylation of ERK2 by MEK1.

MEK1 = MEK1 (Homo sapiens, UniProt Q02750); test: One well multiplexed assay, 572 nm signal: ERK2 phosphorylation by MEK1 with increasing ATP; type: biochemical; settings: signal detected at 572 nm, FIG. 4; read-out: EC50 for ATP-induced ERK2 phosphorylation
MEK1, sequence (Q02750 whole entry, species assumed): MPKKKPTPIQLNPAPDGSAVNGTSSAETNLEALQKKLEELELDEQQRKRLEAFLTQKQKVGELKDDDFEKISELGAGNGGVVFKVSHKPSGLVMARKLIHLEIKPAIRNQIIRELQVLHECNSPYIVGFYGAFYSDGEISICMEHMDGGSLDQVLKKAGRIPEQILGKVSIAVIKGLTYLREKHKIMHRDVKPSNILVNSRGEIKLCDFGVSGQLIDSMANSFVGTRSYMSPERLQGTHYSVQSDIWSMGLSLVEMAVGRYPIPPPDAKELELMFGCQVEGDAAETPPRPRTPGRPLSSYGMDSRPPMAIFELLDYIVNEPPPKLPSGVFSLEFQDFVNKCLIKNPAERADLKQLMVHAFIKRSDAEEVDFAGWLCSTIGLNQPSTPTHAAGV
Text: as §1, §2, §3

[1] = target: T1, human bombesin (hBombesin) 3 (Homo sapiens, UniProt P32247); test: Surface expression of FLAG-tagged bombesin receptor on phthalocyanine-loaded cells, anti-FLAG acceptor beads; type: cell-based; settings: 10 nM or 300 nM agonist, 1 hour at 37° C., Balb3T3 hBombesin 3 FLAG cells
T1 construct: expressed in transfected cells; host or cells: Balb3T3
T1 sequence (P32247 1-399): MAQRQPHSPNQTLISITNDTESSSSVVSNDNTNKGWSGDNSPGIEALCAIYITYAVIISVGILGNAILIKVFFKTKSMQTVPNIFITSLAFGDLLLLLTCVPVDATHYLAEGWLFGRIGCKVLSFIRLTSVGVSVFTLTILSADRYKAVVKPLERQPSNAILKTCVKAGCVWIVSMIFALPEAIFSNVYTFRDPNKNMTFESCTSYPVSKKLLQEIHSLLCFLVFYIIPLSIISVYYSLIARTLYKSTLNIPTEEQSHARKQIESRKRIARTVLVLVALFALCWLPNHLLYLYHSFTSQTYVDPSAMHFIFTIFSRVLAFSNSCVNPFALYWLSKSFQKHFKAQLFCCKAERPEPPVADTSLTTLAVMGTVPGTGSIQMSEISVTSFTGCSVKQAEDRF
Experimental: Bombesin receptor is a well-characterized cell surface receptor which is known to internalize and decrease in cell surface expression following agonist (bombesin) binding. Balb3T3 cells expressing human bombesin (hBombesin) 3 with a FLAG tag and Balb3T3 cells expressing human bombesin 3 without a FLAG tag were used to monitor the expression and binding activity of the bombesin receptor, GPCR in these cells.
About 10 nM or 300 nM of the Bombesin peptide agonist, (6-14)[D-tyr6, b-Ala11, Phe13, Nle14] was incubated with Balb3T3 hBombesin 3 FLAG cells and Balb3T3 hBombesin WT cells for 1 hour at 37° C. after which cells were harvested, labeled with 10 μM to 30 μM Al^3+-phthalocyanine. The phthalocyanine-loaded cells are washed several times in MES or HEPES buffer following the incubation to remove excess phthalocyanine. About 20 to 40 of the anti-FLAG antibody-conjugated acceptor beads including a thioxene and europium chelate emission system are added to the assay mix including MES or HEPES buffer and the phthalocyanine-loaded cells and incubated for 1 hour at room temperature. […] The FLAG-tagged hBombesin was detected with anti-FLAG Acceptor beads in the assay.

MEK1/ERK2, sequence (Q02750 whole entry, species assumed): as the sequence (Q02750 whole entry, species assumed) above

Compound	EC50 (MEK1/ERK2) [nM]	EC50 (MEK1) [nM]	surface expression of the bombesin receptor following agonist stimulation [1]
Nc1ncnc2c1ncn2[C@@H]1O[C@H](COP(=O)(O)OP(=O)(O)OP(=O)(O)O)[C@@H](O)[C@H]1O [ATP]	~1000	~1000	
(6-14)[D-tyr6, b-Ala11, Phe13, Nle14]			Changes in surface expression of the bombesin receptor following agonist stimulation are detected
